Measurements from patent publication US20050165112A1, “Therapeutic agent for inflammatory intestinal diseases containing hydroxamic acid compound as active ingredient” (priority 2002, published 2005).

Columns and labels:
Format in all cases: in vivo
[1] = tested on: acetic acid-induced colitis in male SD (CD) IGS rats; experiment: Acetic acid-induced colitis model; conditions: rat, 0.3 or 3 mg/kg/day, 24 hours after colitis induction
Protocol: Male SD (CD) IGS rats (7 weeks old) were anesthetized with sodium pentobarbital. Colitis was induced by intracolonic instillation of 0.25 mL of 5% acetic acid with a disposable sonde for oral administration for mouse, which is attached to 1 mL syringe (Terumo). The sonde was inserted to 5 cm from anus and acetic acid was infused for 10 seconds. After the removal of the sonde, the anus was plugged for 1 minute. Then the colon was washed with approximate 10 mL of physiological saline with a disposable sonde for oral administration for rat, which was attached to 50 mL syringe (Terumo), and the sonde was inserted to 8 cm from anus.
The test compound or vehicle was administered to animals before 30 minutes and after 8 hours of the colitis induction, at each time half of a dairy dose was administered.
After 24 hours of colitis induction, all colons which from anus to cecum, were removed, the content was washed away with saline solution. After trimming of the washed colon, the colon was cut at 9 cm from anus, wiped out the solution, and weighed with electronic measure. Then the injured area (mm^2) of dissected colon was measured by image analysis.
N-hydroxy-5-hydroxy-2 (S)-methyl-4(S)—(4-phenoxybenzoyl)aminopentanamide (compound (1)) was used as a test compound. Compound (1) was administered to animals at doses of 0.3 or 3 mg/kg/day. […]

[2] = tested on: rat; experiment: Single oral administration toxicity to rat
Protocol: The toxicity of the compounds of the present invention is very low and therefore, the compounds may be considered safe for pharmaceutical use. For example, a minimum of lethal dose of the compound (2) by single oral administration to rat was 2000 mg/kg.

[3] = tested on: TNBS-induced colitis in male SD (CD) IGS rats; experiment: TNBS-induced colitis model; conditions: rat, 1, 3 and 10 mg/kg/day, three days after TNBS induction
Protocol: Male SD (CD) IGS rats (7 weeks old) were anesthetized with sodium pentobarbital. A flexible sonde for oral administration was inserted to 8 cm from the anus. Colitis was induced by intracolonic instillation of 50 mg of 2,4,6-trinitrobenzenesulfonic acid (TNBS) dissolved in 0.25 mL of 20% ethanol, and the anus was plugged and leaved for 2 hours. Test compound was administered at 30 minutes before and 8 hours after the TNBS induction, since the next day of TNBS induction they were administered half of a dairy dose at each time, twice daily in the morning and the evening. Three days later the animals were sacrificed with bleeding under ether anesthetization. All colons were removed, the contents was washed out with saline solution, and then measured the length. After the trimming of the colons, 9 cm segment from the anus was obtained, the water was removed on the paper, and the wet weight was measured with electric scale.
N-hydroxy-5-ethoxymethyloxy-2 (S)-methyl-4(S)— (4-phenoxylbenzoil)aminopentanamide (compound (2)) was used as a test compound. FIG. 3 and FIG. 4 show the effects of compound (2) at the doses of 1, 3 and 10 mg/kg/day on the length and the wet weight of colons respectively.

Row | Structure (SMILES) | injured area ([1]; FIG. 1) | increase in intestine edema (wet weight of colon) ([1]; FIG. 2) | minimum of lethal dose [2] | shrinkage of colon (length of all colons) ([3]; FIG. 3) | increase in intestine edema (wet weight of colon) ([3]; FIG. 4)
1 | C[C@@H](C[C@@H](CO)NC(=O)c1ccc(Oc2ccccc2)cc1)C(=O)NO [compound (1), N-hydroxy-5-hydroxy-2 (S)-methyl-4(S)—(4-phenoxybenzoyl)aminopentanamide] | suppressive tendency to the injured area | suppressed the increase in intestine edema | – | – | –
2 | CCOCOC[C@H](C[C@H](C)C(=O)NO)NC(=O)c1ccc(Oc2ccccc2)cc1 [compound (2), N-hydroxy-5-ethoxymethyloxy-2 (S)-methyl-4(S)— (4-phenoxylbenzoil)aminopentanamide] | – | – | 2000 mg/kg | suppressed the shrinkage of colon | suppressed the shrinkage of colon and the increase in intestine edema
